Converted amounts (≈) assume the structure as drawn.
Columns and labels:
[1] = tested on: rhinovirus type 1A (RV-1A); assay: Tissue culture antiviral testing, RV-1A (viral cytopathic effect in HeLa cells); type: cell-based; conditions: Enterovirus, 48 and 72 hours post-treatment, read-out: Lowest concentration of compound necessary to cause a 50 percent reduction in cytopathic effect, RV-1A
Method: (§1) Monolayered HeLa cells in 16 millimeter (mm) tissue culture dishes were treated with 1 ml of culture medium (Eagles medium supplemented with fetal calf serum) containing compound at 100, 50, 25, 12.5, 6.25 or 0 μg/ml. Culture mediums such as those described herein are more fully described in standard tests, as for example, Kuchler's Biochemical Methods in Cell Culture and Virology, Dowden, Hutchinson and Ross, Inc., Stroudsberg, PA (1977). Immediately following treatment, cells were challenged with 0.05 ml of rhinovirus type 1A (RV-1A), rhinovirus type 2 (RV-2) or coxsackie A21 virus (Cox A21) in culture medium. Cell controls received no virus.
(§2) **Lowest concentration of compound (μg/ml) necessary to cause a 50
(§3) percent reduction in cytopathic effect.

[2] = tested on: coxsackie A21 virus (Cox A21); assay: Tissue culture antiviral testing, Cox A21 (viral cytopathic effect in HeLa cells); type: cell-based; conditions: 48 and 72 hours post-treatment, read-out: Lowest concentration of compound necessary to cause a 50 percent reduction in cytopathic effect, Cox A21
Method: as §1, §2, §3

[3] = Cytotoxicity in tissue culture (monolayered HeLa cells); type: cell-based; conditions: human, observed at 48 and 72 hours post-treatment, read-out: Cytotoxicity (concentration of compound found to be toxic to the cell)
Method: as §1
*Cytotoxicity figures represent the concentration of compound (μg/ml)
found to be toxic to the cell.

[4] = tested on: rhinovirus type 2 (RV-2); assay: Tissue culture antiviral testing, RV-2 (viral cytopathic effect in HeLa cells); type: cell-based; conditions: Enterovirus, 48 and 72 hours post-treatment, read-out: Lowest concentration of compound necessary to cause a 50 percent reduction in cytopathic effect, RV-2
Method: as §1, §2, §3

[5] = tested on: Cox A21 virus; assay: Animal testing, mice challenged intraperitoneally with a normally lethal dose of Cox A21 virus; type: in vivo, Swiss male mice; conditions: 600 mg/kg PO; at the 95 percent confidence level
Method: The subject compounds were also tested in animals as follows:
Swiss male mice, 10-12 g in weight, were challenged intraperitoneally (IP) with 0.2 ml of a normally lethal dose, i.e., a virus dose sufficient to cause .congruent.80-100 percent mortality in infected animals within 10 days of challenge, of Cox A21 virus in phosphate buffered saline containing 1 percent heat inactivated fetal calf serum. Three hours later, mice were treated orally (PO) with 0.2 ml of compound suspended in 0.5 percent hydroxypropyl methylcellulose (Methocel) or with 0.2 ml of Methocel alone. The test compounds were administered at a 30 milligram/milliliter (mg/ml) concentration, which is a 600 milligram/kilogram (mg/kg) dosage. Mice were counted daily for 7-10 days post-challenge and deaths recorded. A modified Mantel-Haenzel combined chi-square (X^2) procedure was used to determine significant difference between virus control and treated groups. Chi-square values greater than 3.84 are considered significant (95 percent confidence level) in this test.

Row | EC50 [1] [mg/L] | EC50 [2] [mg/L] | EC50 [4] [mg/L] | SMILES | MCC [3] [µg/mL] | Antiviral activity in testing with mice (in words) [5]
1 | 12.5 (≈ 32.1 µM) | < 6.25 | > 100 | O=S(=O)(O)c1ccc(N(Cc2ccc(F)cc2)Cc2ccc(F)cc2)cc1 [Example 3, 4-(Bis((4-fluorophenyl)methyl)amino)benzenesulfonic Acid] | 100 | active antiviral compounds in testing with mice
2 | 50 (≈ 123 µM) | < 6.25 | > 100 | O=S(=O)(O)c1ccc(N(Cc2ccc(F)cc2)Cc2ccc(Cl)cc2)cc1 [Example 4, 4-(((4-Chlorophenyl)methyl)((4-fluorophenyl)-methyl)amino)benzenesulfonic Acid] | 50 | active antiviral compounds in testing with mice
3 | 12.5 (≈ 24.5 µM) | < 6.25 | > 100 | O=S(=O)(O)c1ccc(N(Cc2ccc(Br)cc2)Cc2ccc(Br)cc2)cc1 [Example 7, 4-(Bis((4-bromophenyl)methyl)amino)benzenesulfonic Acid] | 25 | active antiviral compounds in testing with mice

Further lines, the molecule ahead of its results:

Row | SMILES | EC50 [1] [mg/L] | EC50 [2] [mg/L] | EC50 [4] [mg/L] | MCC [3] [µg/mL] | Antiviral activity in testing with mice (in words) [5]
4 | O=[N+]([O-])c1cccc(CN(Cc2cccc([N+](=O)[O-])c2)c2ccc(S(=O)(=O)O)cc2)c1 [Example 1, 4-(Bis((3-nitrophenyl)methyl)amino)benzenesulfonic Acid] | 6.25 (≈ 14.1 µM) | < 6.25 | > 100 | 25 | 
5 | O=S(=O)(O)c1ccc(N(Cc2c(Cl)cccc2Cl)Cc2c(Cl)cccc2Cl)cc1 [Example 2, 4-(Bis((2,6-dichlorophenyl)methyl)amino)benzenesulfonic Acid] | 6.25 (≈ 12.7 µM) | < 6.25 | 12.5 (≈ 25.4 µM) | 12.5 | 
6 | O=S(=O)(O)c1ccc(N(Cc2ccc(Cl)cc2)Cc2ccc(Cl)cc2)cc1 [Example 5, 4-(Bis((4-chlorophenyl)methyl)amino)benzenesulfonic Acid] | 12.5 (≈ 29.6 µM) | < 6.25 | > 100 | 25 | active antiviral compounds in testing with mice
7 | O=S(=O)(O)c1ccc(N(Cc2cccc(Cl)c2)Cc2cccc(Cl)c2)cc1 [Example 6, 4-(Bis((3-chlorophenyl)methyl)amino)benzenesulfonic Acid] | > 50 | < 6.25 | > 100 | 100 | active antiviral compounds in testing with mice
8 | O=S(=O)(O)c1ccc(N(Cc2ccccc2F)Cc2ccccc2F)cc1 [Example 8, 4-(Bis((2-fluorophenyl)methyl)amino)benzenesulfonic Acid] | > 100 | < 6.25 | > 100 | 100 | 
9 | O=S(=O)(O)c1ccc(N(Cc2cccc(F)c2)Cc2cccc(F)c2)cc1 [Example 9, 4-(Bis((3-fluorophenyl)methyl)amino)benzenesulfonic Acid] | 50 (≈ 128 µM) | 12.5 (≈ 32.1 µM) | > 100 | 100 | active antiviral compounds in testing with mice

— US4277492A, “Novel 4-bis((Phenylmethyl)amino)-benzenesulfonic acids possessing antiviral activity” (priority 1980, dated 1981)
